Laboratory results: PubChem BioAssay (NCI)
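Five concentrations, 48 hours, 96-well plates. GI50 is the concentration that inhibits growth by half. TGI marks complete inhibition of growth.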

Assays:
Assay in all cases: NCI tumour cell line growth inhibition, 48 h
CAKI-1 renal = system: CAKI-1 renal
HT29 colon = system: HT29 colon
TK-10 renal = system: TK-10 renal
HOP-92 NSCLC = system: HOP-92 NSCLC
SF-295 CNS = system: SF-295 CNS
CCRF-CEM leukemia = system: CCRF-CEM leukemia
SK-OV-3 ovarian = system: SK-OV-3 ovarian
DMS 273 small cell lung = system: DMS 273 small cell lung
UACC-62 melanoma = system: UACC-62 melanoma
SK-MEL-5 melanoma = system: SK-MEL-5 melanoma
A498 renal = system: A498 renal
KM12 colon = system: KM12 colon
SW-620 colon = system: SW-620 colon
NCI-H226 lung = system: NCI-H226 lung
SN12C renal = system: SN12C renal
NCI-H522 lung = system: NCI-H522 lung
EKVX NSCLC = system: EKVX NSCLC
MALME-3M melanoma = system: MALME-3M melanoma
RPMI-8226 leukemia = system: RPMI-8226 leukemia
SK-MEL-28 melanoma = system: SK-MEL-28 melanoma
DMS 114 small cell lung = system: DMS 114 small cell lung
HL-60(TB) leukemia = system: HL-60(TB) leukemia
SF-268 CNS = system: SF-268 CNS
HOP-62 NSCLC = system: HOP-62 NSCLC
SNB-19 CNS = system: SNB-19 CNS
SNB-75 CNS = system: SNB-75 CNS
UO-31 renal = system: UO-31 renal
SK-MEL-2 melanoma = system: SK-MEL-2 melanoma
IGROV1 ovarian = system: IGROV1 ovarian
SNB-78 CNS = system: SNB-78 CNS
MOLT-4 leukemia = system: MOLT-4 leukemia
UACC-257 melanoma = system: UACC-257 melanoma
SR leukemia = system: SR leukemia
COLO 205 colon = system: COLO 205 colon
A549 NSCLC = system: A549 NSCLC
HCC-2998 colon = system: HCC-2998 colon
M19-MEL melanoma = system: M19-MEL melanoma
SF-539 CNS = system: SF-539 CNS
786-0 renal = system: 786-0 renal
XF 498 CNS = system: XF 498 CNS
OVCAR-3 ovarian = system: OVCAR-3 ovarian
NCI-H23 lung = system: NCI-H23 lung
HCT-116 colon = system: HCT-116 colon
M14 melanoma = system: M14 melanoma
OVCAR-8 ovarian = system: OVCAR-8 ovarian
DLD-1 colon = system: DLD-1 colon
OVCAR-4 ovarian = system: OVCAR-4 ovarian
LOX IMVI melanoma = system: LOX IMVI melanoma
LXFL 529 NSCLC = system: LXFL 529 NSCLC
K-562 leukemia = system: K-562 leukemia
RXF 393 renal = system: RXF 393 renal
NCI-H460 lung = system: NCI-H460 lung
OVCAR-5 ovarian = system: OVCAR-5 ovarian
U251 CNS = system: U251 CNS
HCT-15 colon = system: HCT-15 colon
ACHN renal = system: ACHN renal
KM20L2 colon = system: KM20L2 colon

## O=C1OC(Cl)C(N=P(c2ccccc2)(c2ccccc2)c2ccccc2)=C1Cl (centres undefined)
CAKI-1 renal
  TGI: > 100 µM
HT29 colon
  TGI: > 100 µM
TK-10 renal
  TGI: > 100 µM
HOP-92 NSCLC
  TGI: > 100 µM
SF-295 CNS
  TGI: > 100 µM
CCRF-CEM leukemia
  TGI: > 100 µM
SK-OV-3 ovarian
  TGI: > 100 µM
DMS 273 small cell lung
  TGI: > 100 µM
UACC-62 melanoma
  TGI: > 100 µM
SK-MEL-5 melanoma
  TGI: > 100 µM
A498 renal
  TGI: > 100 µM
KM12 colon
  TGI: > 100 µM
SW-620 colon
  TGI: > 100 µM
NCI-H226 lung
  TGI: > 100 µM
SN12C renal
  TGI: > 100 µM
NCI-H522 lung
  TGI: > 100 µM
EKVX NSCLC
  TGI: > 100 µM
MALME-3M melanoma
  TGI: > 100 µM
RPMI-8226 leukemia
  TGI: > 100 µM
SK-MEL-28 melanoma
  TGI: > 100 µM
DMS 114 small cell lung
  TGI: > 100 µM
HL-60(TB) leukemia
  TGI: > 100 µM
SF-268 CNS
  TGI: > 100 µM
HOP-62 NSCLC
  TGI: > 100 µM
SNB-19 CNS
  TGI: > 100 µM
SNB-75 CNS
  TGI: 85.4 µM
UO-31 renal
  TGI: > 100 µM
SK-MEL-2 melanoma
  TGI: > 100 µM
IGROV1 ovarian
  TGI: > 100 µM
SNB-78 CNS
  TGI: > 100 µM
MOLT-4 leukemia
  TGI: > 100 µM
UACC-257 melanoma
  TGI: > 100 µM
SR leukemia
  TGI: > 100 µM
COLO 205 colon
  TGI: > 100 µM
A549 NSCLC
  TGI: > 100 µM
HCC-2998 colon
  TGI: > 100 µM
M19-MEL melanoma
  TGI: > 100 µM
SF-539 CNS
  TGI: > 100 µM
786-0 renal
  TGI: > 100 µM
XF 498 CNS
  TGI: > 100 µM
OVCAR-3 ovarian
  TGI: > 100 µM
NCI-H23 lung
  TGI: > 100 µM
HCT-116 colon
  TGI: > 100 µM
M14 melanoma
  TGI: > 100 µM
OVCAR-8 ovarian
  TGI: > 100 µM
DLD-1 colon
  TGI: > 100 µM
OVCAR-4 ovarian
  TGI: > 100 µM
LOX IMVI melanoma
  TGI: > 100 µM
LXFL 529 NSCLC
  TGI: > 100 µM
K-562 leukemia
  TGI: > 100 µM

## O=C([CH-]C(=O)C(F)(F)F)c1ccccc1.O=C([CH-]C(=O)C(F)(F)F)c1ccccc1.[O]=[U+2]=[O]
CAKI-1 renal
  GI50: 39 µM
  TGI: > 100 µM
HT29 colon
  GI50: 28.3 µM
  TGI: 68.2 µM
TK-10 renal
  GI50: 20.4 µM
  TGI: 64.1 µM
HOP-92 NSCLC
  GI50: 30.9 µM
  TGI: 95.6 µM
RXF 393 renal
  GI50: 16.9 µM
  TGI: 45.4 µM
SF-295 CNS
  GI50: 20.8 µM
  TGI: 86.5 µM
CCRF-CEM leukemia
  GI50: 11.4 µM
  TGI: > 100 µM
SK-OV-3 ovarian
  GI50: 51.4 µM
  TGI: > 100 µM
DMS 273 small cell lung
  GI50: 7.38 µM
  TGI: > 100 µM
UACC-62 melanoma
  GI50: 12.2 µM
  TGI: 87.9 µM
SK-MEL-5 melanoma
  GI50: 17.8 µM
  TGI: > 100 µM
A498 renal
  GI50: 24.6 µM
  TGI: 74.4 µM
KM12 colon
  GI50: 26 µM
  TGI: 92.6 µM
SW-620 colon
  GI50: 27.9 µM
  TGI: > 100 µM
SN12C renal
  GI50: 9.1 µM
  TGI: > 100 µM
NCI-H522 lung
  GI50: 4.11 µM
  TGI: > 100 µM
EKVX NSCLC
  GI50: 22.3 µM
  TGI: 72.9 µM
MALME-3M melanoma
  GI50: 18.6 µM
  TGI: 47.7 µM
RPMI-8226 leukemia
  GI50: 8.51 µM
  TGI: > 100 µM
SK-MEL-28 melanoma
  GI50: 9.2 µM
  TGI: 79.5 µM
NCI-H460 lung
  GI50: 12.6 µM
  TGI: 90.6 µM
HL-60(TB) leukemia
  GI50: 15.8 µM
  TGI: 78.4 µM
SF-268 CNS
  GI50: 4.53 µM
  TGI: > 100 µM
HOP-62 NSCLC
  GI50: 15.1 µM
  TGI: 53.9 µM
SNB-19 CNS
  GI50: 4.62 µM
  TGI: > 100 µM
SNB-75 CNS
  GI50: 28.8 µM
  TGI: 85.8 µM
UO-31 renal
  GI50: 5.4 µM
  TGI: > 100 µM
SK-MEL-2 melanoma
  GI50: 28 µM
  TGI: > 100 µM
IGROV1 ovarian
  GI50: 16.5 µM
  TGI: > 100 µM
MOLT-4 leukemia
  GI50: 19.4 µM
  TGI: > 100 µM
UACC-257 melanoma
  GI50: 27.3 µM
  TGI: > 100 µM
COLO 205 colon
  GI50: 34.5 µM
  TGI: > 100 µM
OVCAR-5 ovarian
  GI50: 64.1 µM
  TGI: > 100 µM
U251 CNS
  GI50: 5.61 µM
  TGI: > 100 µM
A549 NSCLC
  GI50: 27.4 µM
  TGI: > 100 µM
HCT-15 colon
  GI50: 7.27 µM
  TGI: > 100 µM
HCC-2998 colon
  GI50: 14.4 µM
  TGI: 61.7 µM
M19-MEL melanoma
  GI50: 16.6 µM
  TGI: > 100 µM
ACHN renal
  GI50: 13.6 µM
  TGI: 80.9 µM
SF-539 CNS
  GI50: 4.13 µM
  TGI: > 100 µM
786-0 renal
  GI50: 21.7 µM
  TGI: 89.4 µM
XF 498 CNS
  GI50: 23.8 µM
  TGI: 69.9 µM
OVCAR-3 ovarian
  GI50: 18 µM
  TGI: 56.7 µM
NCI-H23 lung
  GI50: 4.71 µM
  TGI: 67.7 µM
KM20L2 colon
  GI50: 19.9 µM
  TGI: > 100 µM
M14 melanoma
  GI50: 19.1 µM
  TGI: 88.9 µM
OVCAR-8 ovarian
  GI50: 14.1 µM
  TGI: 93.6 µM
DLD-1 colon
  GI50: 7.75 µM
  TGI: > 100 µM
OVCAR-4 ovarian
  GI50: 10.4 µM
  TGI: > 100 µM
LOX IMVI melanoma
  GI50: 13 µM
  TGI: > 100 µM
LXFL 529 NSCLC
  GI50: 7.33 µM
  TGI: > 100 µM
K-562 leukemia
  GI50: 13.1 µM
  TGI: > 100 µM
